Patent publication US9341618B2, “Method for evaluating or screening hair growth-regulating agent” (Kao Corporation, priority 2007, dated 2016)
Like-named read-outs stand apart in the source and are kept apart here.

Experiments:
[1] = system: hair follicles of a pig; details: DHT 10 ng/mL; for Hair elongation quantity (control regarded as 100%): 6th day of organ culture, William's E medium
Experimental: As a pig skin, a skin obtained from a crossbred pig with white hair which has been bred as a pork pig in Japan was used. The pig skin was cut into an appropriate size, the extra fat was cut away, and the resulting skin was soaked in a Hibiten solution (5% Hibiten solution (Sumitomo Pharmaceuticals) was diluted to 5 to 20 times with water) for 5 to 10 minutes under sterile conditions for sterilization and then washed several times with D-PBS.
Then hair follicles were isolated from the treated pig skin using forceps and scalpel (FEATHER No. 10) under a stereo microscope and collected in a medium.
According to the procedures (1), hair follicles of a pig were obtained from the dorsal region, lateral region, abdominal region, inguinal region, buttocks and shoulder of the pig. The isolated hair follicles were placed in a 24-well culture plate to give one hair follicle per well.
Incubation was carried out at 37° C. for 6 days in an incubator containing 5% of CO2.
The medium was exchanged every two days or every three days, and a hair elongation quantity after 6 days incubation was measured and compared with that of control.
For the control, William's E medium not containing DHT was used, and a hair elongation quantity after the organ culture was regarded as 100%.
Incidentally, a hair elongation quantity was measured, regarding the date on which incubation was commenced as the 0th day, by taking stereo microscopic images with a CCD camera (pixera model No. PVC 100C) at the 0th day and the 6th day, and measuring the change of the length from the base of hairbulb to the tip of hair shaft based on the images.

[2] = system: hair follicles of a human; details: literature; cited from earlier work
[3] = system: hair follicles at the buttocks of a pig; experiment: Organ culture of pig buttocks hair follicles in RPMI1640 medium (hair elongation); assay type: cell-based; details: TGF-β2 10 ng/mL, 8th day of organ culture in RPMI1640 medium
Experimental: The hair follicles were incubated at 37° C. for 8 days in an incubator containing 5% of CO2.

[4] = abdominal region hair follicles

Molecule: C[C@]12CCC(=O)C[C@@H]1CC[C@@H]1[C@@H]2CC[C@]2(C)[C@@H](O)CC[C@@H]12 [DHT, 5α-dihydrotestosterone]
- Growth of hair follicles, effect in words [1, 4]: suppressed
- Hair elongation quantity (control regarded as 100%) [1, 4]: 75%
- Hair elongation quantity (control regarded as 100%) ([1]; buttocks hair follicles): 102%
- Growth of hair follicles, effect in words ([1]; dorsal region hair follicles): promoted
- Hair elongation quantity (control regarded as 100%) ([1]; dorsal region hair follicles): 179%
- Hair elongation quantity (control regarded as 100%) ([1]; inguinal region hair follicles): 102%
- Hair elongation quantity (control regarded as 100%) ([1]; lateral region hair follicles): 108%
- Hair elongation quantity (control regarded as 100%) ([1]; shoulder hair follicles): 99%

B1: TGF-β2: TGF-β2 (R & D Systems, Inc., item No. 102-B2-001/CF), confirmed to suppress hair growth in human hair follicle organ culture (protein, UniProt P61812 303-414, looked up)
Transforming growth factor …: ALDAAYCFRNVQDNCCLRPLYIDFKRDLGWKWIHEPKGYNANFCAGACPYLWSSDTQHSRVLSLYNTINPEASASPCCVSQDLEPLTILYYIGKTPKIEQLSNMIVKSCKCS
- Effect on hair growth in organ culture [2]: confirmed to suppress hair growth
- Hair elongation rate (%) when that of control is regarded as 100% [3]: 59%
